Measured values reported in patent US8653263B2 (Janssen Pharmaceutica, priority 2009, dated 2014).

target: human orexin-2 receptor (Homo sapiens (Human), UniProt O43614); experiment: Human orexin 2 receptor radioligand binding ([3H]-EMPA competition); details: HEK293 cells stably expressing human orexin-2 receptor; [3H]-EMPA 5 nM final; apparent Ki=IC50/(1+C/Kd), Kd=2 nM; read-out: OR 2 Ki
Sequence (O43614 whole entry): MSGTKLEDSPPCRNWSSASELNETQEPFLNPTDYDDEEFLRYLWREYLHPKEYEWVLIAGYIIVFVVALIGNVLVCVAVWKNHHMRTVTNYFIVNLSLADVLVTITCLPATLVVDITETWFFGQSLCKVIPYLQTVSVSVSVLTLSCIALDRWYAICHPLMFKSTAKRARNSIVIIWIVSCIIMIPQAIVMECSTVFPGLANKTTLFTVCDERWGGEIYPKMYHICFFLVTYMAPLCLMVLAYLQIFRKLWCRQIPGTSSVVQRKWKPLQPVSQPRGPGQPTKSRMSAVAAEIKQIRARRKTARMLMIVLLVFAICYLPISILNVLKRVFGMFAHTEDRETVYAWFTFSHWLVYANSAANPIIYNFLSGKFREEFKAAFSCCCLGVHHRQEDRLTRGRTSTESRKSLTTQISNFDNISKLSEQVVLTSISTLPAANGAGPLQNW

Ki	Compound
8 nM	Cc1cc(C)nc(N2CC3CN(C(=O)c4cccc5c4-c4ccccc4C5)CC3C2)n1 (stereo not shown) [Example 326, 2-(4,6-Dimethylpyrimidin-2-yl)-5-(9H-fluoren-4-ylcarbonyl)octahydropyrrolo[3,4-c]pyrrole]
3190 nM	Cc1cc(C)nc(N2CC3CN(C(=O)c4ccccc4-n4ccnn4)CC3C2)n1 (stereo not shown) [Example 205, [5-(4,6-Dimethyl-pyrimidin-2-yl)-hexahydro-pyrrolo[3,4-c]pyrrol-2-yl]-(2-[1,2,3]triazol-1-yl-phenyl)-methanone]
36 nM	COc1ccnc(N2CC3CN(C(=O)c4ccccc4-c4cccs4)CC3C2)n1 (stereo not shown) [Example 45, 2-(4-Methoxypyrimidin-2-yl)-5-[(2-thiophen-2-ylphenyl)carbonyl]octahydro-pyrrolo[3,4-c]pyrrole]
945 nM	COc1ccc(C(=O)N2CC3CN(c4cc(C)c5ccccc5n4)CC3C2)c(OC)c1 (stereo not shown) [Example 170, 2-{5-[(2,4-Dimethoxyphenyl)carbonyl]hexahydropyrrolo[3,4-c]pyrrol-2(1H)-yl}-4-methylquinoline]
102 nM	Cc1cccc(N2CC3CN(C(=O)c4ccccc4-c4cccs4)CC3C2)n1 (stereo not shown) [Example 134, 2-(6-Methylpyridin-2-yl)-5-[(2-thiophen-2-ylphenyl)carbonyl]octahydropyrrolo[3,4-c]pyrrole]
519 nM	O=C(c1ccccc1-n1cccn1)N1CC2CN(c3cnc4ccccc4n3)CC2C1 (stereo not shown) [Example 18, 2-[5-{[2-(1H-Pyrazol-1-yl)phenyl]carbonyl}hexahydropyrrolo[3,4-c]pyrrol-2(1H)-yl]quinoxaline]
449 nM	Cc1nc2ccccc2nc1N1CC2CN(C(=O)c3ccccc3-c3ccccc3)CC2C1 (stereo not shown) [Example 66, 2-[5-(Biphenyl-2-ylcarbonyl)hexahydropyrrolo[3,4-c]pyrrol-2(1H)-yl]-3-methylquinoxaline]
635 nM	Cc1ccc(C)c(C(=O)N2CC3CN(c4nc(C)cc(C)n4)CC3C2)c1 (stereo not shown) [Example 224, 2-[(2,5-Dimethylphenyl)carbonyl]-5-(4,6-dimethylpyrimidin-2-yl)octahydropyrrolo[3,4-c]pyrrole]
38 nM	Cc1cc(C)nc(N2CC3CN(C(=O)c4c(C)ccc5ccccc45)CC3C2)n1 (stereo not shown) [Example 47, 2-(4,6-Dimethylpyrimidin-2-yl)-5-[(2-methylnaphthalen-1-yl)carbonyl]octahydro-pyrrolo[3,4-c]pyrrole]
17 nM	Cc1cc(C)nc(N2CC3CN(C(=O)c4ccccc4-c4ccccn4)CC3C2)n1 (stereo not shown) [Example 69, 2-(4,6-Dimethylpyrimidin-2-yl)-5-[(2-pyridin-2-ylphenyl)carbonyl]octahydro-pyrrolo[3,4-c]pyrrole]
10 nM	CCc1c(C)nc(N2CC3CN(C(=O)c4ccccc4-c4ncn(C)n4)CC3C2)nc1C (stereo not shown) [Example 322, 2-(5-Ethyl-4,6-dimethylpyrimidin-2-yl)-5-{[2-(1-methyl-1H-1,2,4-triazol-3-yl)phenyl]carbonyl}octahydropyrrolo[3,4-c]pyrrole]
730 nM	COc1ccc(C(=O)N2CC3CN(c4nc5ccccc5s4)CC3C2)c(OC)c1 (stereo not shown) [Example 17, 2-{5-[(2,4-Dimethoxyphenyl)carbonyl]hexahydropyrrolo[3,4-c]pyrrol-2(1H)-yl}-1,3-benzothiazole]
30 nM	COc1ccc(C(=O)N2CC3CN(c4ncc5cc(F)ccc5n4)CC3C2)c(-n2nccn2)c1 (stereo not shown) [Example 388]
1500 nM	CCCOc1cccnc1C(=O)N1CC2CN(c3nc(C)cc(C)n3)CC2C1 (stereo not shown) [Example 344, (5-(4,6-dimethylpyrimidin-2-yl)hexahydropyrrolo[3,4-c]pyrrol-2(1H)-yl)(3-propoxypyridin-2-yl)methanone]
1400 nM	Cc1cc(C)nc(N2CC3CN(C(=O)c4cccc(F)c4-n4ccnn4)CC3C2)n1 (stereo not shown) [Example 287, 2-(4,6-Dimethylpyrimidin-2-yl)-5-{[3-fluoro-2-(1H-1,2,3-triazol-1-yl)phenyl]carbonyl}octahydropyrrolo[3,4-c]pyrrole]
780 nM	COc1ccc(C(=O)N2CC3CN(c4nc5ccc(OC)cc5s4)CC3C2)c(OC)c1 (stereo not shown) [Example 171, 2-{5-[(2,4-Dimethoxyphenyl)carbonyl]hexahydropyrrolo[3,4-c]pyrrol-2(1H)-yl}-6-methoxy-1,3-benzothiazole]
26 nM	Cc1cc(C)nc(N2CC3CN(C(=O)c4ccccc4-c4ncn(C)n4)CC3C2)n1 (stereo not shown) [Example 308, 2-(4,6-Dimethylpyrimidin-2-yl)-5-{[2-(1-methyl-1H-1,2,4-triazol-3-yl)phenyl]carbonyl}octahydropyrrolo[3,4-c]pyrrole]
81 nM	O=C(c1ccccc1-n1nccn1)N1CC2CN(c3nccc(-c4cccs4)n3)CC2C1 (stereo not shown) [Example 143, 2-(4-Thiophen-2-ylpyrimidin-2-yl)-5-{[2-(2H-1,2,3-triazol-2-yl)phenyl]carbonyl}octahydropyrrolo[3,4-c]pyrrole]
79 nM	Cc1nc(N2CC3CN(C(=O)c4ccccc4-c4ncn(C)n4)CC3C2)ncc1F (stereo not shown) [Example 312, 2-(5-Fluoro-4-methylpyrimidin-2-yl)-5-{[2-(1-methyl-1H-1,2,4-triazol-3-yl)phenyl]carbonyl}octahydropyrrolo[3,4-c]pyrrole]

Ki	Compound
109 nM	Cc1cc(C)nc(N2CC3CN(C(=O)c4cccc(F)c4-c4ncccc4Cl)CC3C2)n1 (stereo not shown) [Example 372, (2-(3-Chloropyridin-2-yl)-3-fluorophenyl)(5-(4,6-dimethylpyrimidin-2-yl)hexahydropyrrolo[3,4-c]pyrrol-2(1H)-yl)methanone]
1020 nM	COc1cccc(OC)c1C(=O)N1CC2CN(c3nc4ccccc4o3)CC2C1 (stereo not shown) [Example 192, (5-Benzooxazol-2-yl-hexahydro-pyrrolo[3,4-c]pyrrol-2-yl)-(2,6-dimethoxy-phenyl)-methanone]
9000 nM	CCCc1nc(C)cc(N2CC3CN(C(=O)c4ccccc4-n4nccn4)CC3C2)n1 (stereo not shown) [Example 209, [5-(6-Methyl-2-propyl-pyrimidin-4-yl)-hexahydro-pyrrolo[3,4-c]pyrrol-2-yl]-(2-[1,2,3]triazol-2-yl-phenyl)-methanone]
716 nM	Cc1ccnc(N2CC3CN(C(=O)c4ccccc4-c4cccc(F)c4)CC3C2)n1 (stereo not shown) [Example 48, 2-[(3′-Fluorobiphenyl-2-yl)carbonyl]-5-(4-methylpyrimidin-2-yl)octahydro-pyrrolo[3,4-c]pyrrole]
10000 nM	O=C(O)c1cnc(N2CC3CN(C(=O)c4c(F)cccc4-n4nccn4)CC3C2)nc1C(F)(F)F (stereo not shown) [Example 263, 2-(5-(2-Fluoro-6-(2H-1,2,3-triazol-2-yl)benzoyl)hexahydropyrrolo[3,4-c]pyrrol-2(1H)-yl)-4-(trifluoromethyl)pyrimidine-5-carboxylic acid]
90 nM	Cc1ccnc(N2CC3CN(C(=O)c4ccccc4-n4nccn4)CC3C2)n1 (stereo not shown) [Example 135, 2-(4-Methylpyrimidin-2-yl)-5-{[2-(2H-1,2,3-triazol-2-yl)phenyl]carbonyl}octahydro pyrrolo[3,4-c]pyrrole]
352 nM	O=C(c1cccc2c1OCCO2)N1CC2CN(c3nccc(-c4ccccc4)n3)CC2C1 (stereo not shown) [Example 21, 2-(2,3-Dihydro-1,4-benzodioxin-5-ylcarbonyl)-5-(4-phenylpyrimidin-2-yl)octahydropyrrolo[3,4-c]pyrrole]
125 nM	O=C(c1ccccc1-n1nccn1)N1CC2CN(c3ccc(F)cn3)CC2C1 (stereo not shown) [Example 152, 2-(5-Fluoropyridin-2-yl)-5-{[2-(2H-1,2,3-triazol-2-yl)phenyl]carbonyl}octahydro pyrrolo[3,4-c]pyrrole]
4400 nM	COc1ccccc1S(=O)(=O)N1CC2CN(c3ccc(C(F)(F)F)cn3)CC2C1 (stereo not shown) [Example 361, 2-((2-Methoxyphenyl)sulfonyl)-5-(5-(trifluoromethyl)pyridin-2-yl)octahydropyrrolo[3,4-c]pyrrole]
180 nM	COc1ccccc1S(=O)(=O)N1CC2CN(c3nc(C)cc(C)n3)CC2C1 (stereo not shown) [Example 359, 2-(4,6-Dimethylpyrimidin-2-yl)-5-((2-methoxyphenyl)sulfonyl)octahydropyrrolo[3,4-c]pyrrole]
1160 nM	COc1ccc(C(=O)N2CC3CN(c4cnc5ccccc5n4)CC3C2)c(C)c1 (stereo not shown) [Example 197, (4-Methoxy-2-methyl-phenyl)-(5-quinoxalin-2-yl-hexahydro-pyrrolo[3,4-c]pyrrol-2-yl)-methanone]
45 nM	CCOc1ccc2ccccc2c1C(=O)N1CC2CN(c3cnc4ccccc4n3)CC2C1 (stereo not shown) [Example 145, 2-{5-[(2-Ethoxynaphthalen-1-yl)carbonyl]hexahydropyrrolo[3,4-c]pyrrol-2(1H)-yl}quinoxaline]
3560 nM	O=C(c1ccccc1-c1cccnc1)N1CC2CN(c3cnc4ccccc4n3)CC2C1 (stereo not shown) [Example 181, (2-Pyridin-3-yl-phenyl)-(5-quinoxalin-2-yl-hexahydro-pyrrolo[3,4-c]pyrrol-2-yl)-methanone]
24 nM	O=C(c1ccccc1-c1cccs1)N1CC2CN(c3cnc4ccccc4n3)CC2C1 (stereo not shown) [Example 19, 2-{5-[(2-Thiophen-2-ylphenyl)carbonyl]hexahydropyrrolo[3,4-c]pyrrol-2(1H)-yl}quinoxaline]
238 nM	Cc1ccc(-n2nccn2)c(C(=O)N2CC3CN(c4cncc(C)n4)CC3C2)c1 (stereo not shown) [Example 100, 2-(6-Methylpyrazin-2-yl)-5-{[5-methyl-2-(2H-1,2,3-triazol-2 yl)phenyl]carbonyl}octahydropyrrolo[3,4-c]pyrrole]
17 nM	Cc1cc(C)nc(N2CC3CN(C(=O)c4cccc(F)c4-c4ncco4)CC3C2)n1 (stereo not shown) [Example 376, (5-(4,6-Dimethylpyrimidin-2-yl)hexahydropyrrolo[3,4-c]pyrrol-2(1H)-yl)(3-fluoro-2-(oxazol-2-yl)phenyl)methanone]
1000 nM	COc1cc(OC)nc(N2CC3CN(C(=O)c4cc(F)ccc4-c4ncccn4)CC3C2)n1 (stereo not shown) [Example 71, 2-(4,6-Dimethoxypyrimidin-2-yl)-5-[(5-fluoro-2-pyrimidin-2-ylphenyl)carbonyl]octahydropyrrolo[3,4-c]pyrrole]
318 nM	COc1cc(OC)nc(N2CC3CN(C(=O)c4cc(F)ccc4-n4nccn4)CC3C2)n1 (stereo not shown) [Example 72, 2-(4,6-Dimethoxypyrimidin-2-yl)-5-{[5-fluoro-2-(2H-1,2,3-triazol-2-yl)phenyl]carbonyl}octahydropyrrolo[3,4-c]pyrrole]
